The target in this test is T1, full-length human BTK (Homo sapiens, UniProt Q06187).
T1 construct: 2.5× stocks of full-length human BTK (08-080); purchased CarnaBio USA, Inc., Natick, Mass; 08-080
T1 sequence (Q06187 whole entry): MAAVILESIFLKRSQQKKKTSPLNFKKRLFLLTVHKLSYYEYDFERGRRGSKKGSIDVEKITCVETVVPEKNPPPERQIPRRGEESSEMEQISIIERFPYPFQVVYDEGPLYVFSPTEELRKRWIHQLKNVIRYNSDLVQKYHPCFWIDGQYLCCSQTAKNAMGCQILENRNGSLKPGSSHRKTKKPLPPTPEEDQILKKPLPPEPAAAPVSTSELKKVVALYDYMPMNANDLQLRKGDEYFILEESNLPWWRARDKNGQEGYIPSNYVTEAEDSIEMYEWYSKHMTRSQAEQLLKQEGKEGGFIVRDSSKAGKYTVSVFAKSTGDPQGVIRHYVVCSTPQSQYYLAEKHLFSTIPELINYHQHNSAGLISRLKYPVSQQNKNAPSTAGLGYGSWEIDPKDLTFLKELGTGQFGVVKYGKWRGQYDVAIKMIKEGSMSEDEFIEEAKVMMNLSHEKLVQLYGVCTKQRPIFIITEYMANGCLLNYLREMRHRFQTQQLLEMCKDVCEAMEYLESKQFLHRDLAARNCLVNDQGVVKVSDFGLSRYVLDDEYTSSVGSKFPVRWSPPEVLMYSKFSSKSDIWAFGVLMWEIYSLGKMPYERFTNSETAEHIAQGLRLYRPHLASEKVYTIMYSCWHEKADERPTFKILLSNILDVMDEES
In words: Assay A: BTK IC50 Enzyme Assay (microfluidic off-chip mobility shift kinase assay). Type of test: biochemical. To be noted: full-length human BTK, kinKDR peptide substrate, incubated 90 min at 27 C; read-out: Assay A (Time Dependent BTK Enzyme Assay IC50). The gist of the method: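 Off-chip microfluidic mobility shift assay with full-length human BTK; phosphorylated and unphosphorylated peptide substrate were separated by charge/mass on a LabChip 3000.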
Regarding `C=CC(=O)N1CCN(c2ccc(C(N)=O)c(N(C)c3cccc(C)c3)n2)CC1` [Compound 58, 6-(4-Acryloyl-piperazin-1-yl)-2-(methyl-m-tolyl-amino)-nicotinamide], the IC50 lay in the range of 0.1 to 1 µM.

For `C=CC(=O)NC1CCCN(c2cnc(Oc3ccc(Oc4cccc(F)c4)cc3)c(C(N)=O)c2)C1` (stereo not shown) [Compound 220, 3-Acryloylamino-6′-[4-(3-fluoro-phenoxy)-phenoxy]-3,4,5,6-tetrahydro-2H-[1,3′]bipyridinyl-5′-carboxylic acid amide], the IC50 was 1 to 5 µM. In the case of `C=CC(=O)N[C@H]1CCN(c2ccc(C(N)=O)c(Nc3cccc(C)c3)n2)C1` [Compound 57, 6-((S)-3-Acryloylamino-pyrrolidin-1-yl)-2-m-tolylamino-nicotinamide], the IC50 is less than 0.1 µM. For the compound `C=CC(=O)N[C@H]1CCN(c2ccc(C(N)=O)c(NCCN3CCOCC3)n2)C1` [Compound 166, 6-((S)-3-Acryloylamino-pyrrolidin-1-yl)-2-(2-morpholin-4-yl-ethylamino)-nicotinamide], the IC50 is greater than 5 µM. With `C=CC(=O)NCc1cccc(-c2cnc(C(N)=O)nc2)c1` [Compound 152], the IC50 was 1 to 5 µM. As for `C=CC(=O)N1CCN(c2ncc(C(N)=O)c(Oc3ccc(Oc4ccccc4)cc3)n2)C(C)C1` (stereo not shown) [Compound 218, 2-(4-acryloyl-2-methylpiperazin-1-yl)-4-(4-phenoxyphenoxy)pyrimidine-5-carboxamide], the figure is less than 0.1 µM; as for `C=CC(=O)N[C@H]1CCN(c2ccc(C(N)=O)c(Oc3ccc(NC(=O)c4ccccc4)cc3)n2)C1` [Compound 95, (S)-6-(3-acrylamidopyrrolidin-1-yl)-2-(4-benzamidophenoxy)nicotinamide], 0.1 to 1 µM.

On to `C=CC(=O)N1CC2(CC(Nc3ncc(C(N)=O)c(Oc4ccc(Oc5ccccc5)cc4)n3)C2)C1` [Compound 183, 2-((2-acryloyl-2-azaspiro[3.3]heptan-6-yl)amino)-4-(4-phenoxyphenoxy)pyrimidine-5-carboxamide], for which the IC50 lay in the range of 0.1 to 1 µM. `C=CC(=O)N1CCC2(CC(Nc3ncc(C(N)=O)c(Oc4ccc(Oc5ccccc5)cc4)n3)C2)C1` (stereo not shown) [Compound 182, 2-((6-acryloyl-6-azaspiro[3.4]octan-2-yl)amino)-4-(4-phenoxyphenoxy)pyrimidine-5-carboxamide]: the IC50 lay in the range of 1 to 5 µM. For the compound `C/C=C/C(=O)NC1CCN(c2cnc(Oc3ccc(Oc4ccccc4)cc3)c(C(N)=O)c2)C1` (stereo not shown) [Compound 199, 5-[3-((E)-But-2-enoylamino)-pyrrolidin-1-yl]-2-(4-phenoxy-phenoxy)-nicotinamide], the IC50 was greater than 5 µM. `C=CC(=O)N1C[C@@H]2CCC[C@H]1CN(c1ncc(C(N)=O)c(Oc3ccc(Oc4ccccc4)cc3)n1)C2` [Compound 208, 2-((1 S,5R)-9-acryloyl-3,9-diazabicyclo[3.3.2]decan-3-yl)-4-(4-phenoxyphenoxy)pyrimidine-5-carboxamide]: the IC50 was 0.1 to 1 µM. As to `C/C=C/C(=O)N1CC2CN(c3cnc(Oc4ccc(Oc5ccccc5)cc4)c(C(N)=O)c3)CC2C1` (stereo not shown) [Compound 217, 5-[5-((E)-But-2-enoyl)-hexahydro-pyrrolo[3,4-c]pyrrol-2-yl]-2-(4-phenoxy-phenoxy)-nicotinamide], the IC50 was greater than 5 µM. Take `C=CC(=O)N[C@H]1CCN(c2ccc(C(N)=O)c(Nc3ccc(C(=O)N4CCCCC4)cc3)n2)C1` [Compound 21, 6-((S)-3-Acryloylamino-pyrrolidin-1-yl)-2-[4-(piperidine-1-carbonyl)-phenylamino]-nicotinamide]: the IC50 is less than 0.1 µM. Turning to `C=CC(=O)N[C@H]1CCN(c2nc(Nc3ccc(N4CCC(F)(F)CC4)cc3)c(F)cc2C(N)=O)C1` [Compound 186, 2-((S)-3-Acryloylamino-pyrrolidin-1-yl)-6-[4-(4,4-difluoro-piperidin-1-yl)-phenylamino]-5-fluoro-nicotinamide formic acid], the IC50 lay within 0.1 to 1 µM.

As for `C=CC(=O)NC1CCN(c2cnc(Oc3ccc(Oc4cccc(F)c4)cc3)c(C(N)=O)c2)CC1` [Compound 212, 4-Acryloylamino-6′-[4-(3-fluoro-phenoxy)-phenoxy]-3,4,5,6-tetrahydro-2H-[1,3′]bipyridinyl-5′-carboxylic acid amide], the IC50 lay within 0.1 to 1 µM. As to `C/C=C/C(=O)N1CCC(Nc2cnc(Oc3ccc(Oc4ccccc4)cc3)c(C(N)=O)c2)C1` (stereo not shown) [Compound 202, 5-[1-((E)-But-2-enoyl)-pyrrolidin-3-ylamino]-2-(4-phenoxy-phenoxy)-nicotinamide], the IC50 lay in the range of 1 to 5 µM. Consider `C=CC(=O)N1CCC=C(c2ccc(C(N)=O)c(Oc3ccc(Oc4ccccc4)cc3)n2)C1` [Compound 83, 1′-Acryloyl-6-(4-phenoxy-phenoxy)-1′,2′,5′,6′-tetrahydro-[2,3′]bipyridinyl-5-carboxylic acid amide], for which the half-maximal inhibitory concentration (IC50) was less than 0.1 µM. As to `C=CC(=O)N1CCC(c2cc(Oc3ccc(C(=O)Nc4ccccc4)cc3)c(C(N)=O)cn2)C1` (stereo not shown) [Compound 117], the IC50 was in the range of 1 to 5 µM. Consider `C=CC(=O)N[C@H]1CCN(c2ccc(C(N)=O)c(Oc3ccc(Oc4cccc(C#N)c4)cc3)n2)C1` [Compound 79, (S)-6-(3-acrylamidopyrrolidin-1-yl)-2-(4-(3-cyanophenoxy)phenoxy)nicotinamide], for which the IC50 was less than 0.1 µM.

In the case of `C=CC(=O)N[C@H]1CCN(c2ccc(C(N)=O)c(Nc3ccc(F)c(C)c3)n2)C1` [Compound 60, 6-((S)-3-Acryloylamino-pyrrolidin-1-yl)-2-(4-fluoro-3-methyl-phenylamino)-nicotinamide], the half-maximal inhibitory concentration (IC50) is 0.1 to 1 µM. For `N#CN1CCC[C@H](c2cnc(Oc3ccc(Oc4ccc(F)cc4F)cc3)c(C(N)=O)c2)C1` [Compound 248, 5-[(3R)-1-cyanopiperidin-3-yl]-2-[4-(2,4-difluorophenoxy)phenoxy]pyridine-3-carboxamide], the IC50 fell in the range of 1 to 5 µM. Take `CN(C)C/C=C/C(=O)N1CCC(Nc2ncc(C(N)=O)c(N)n2)C1` (stereo not shown) [Compound 138, 4-Amino-2-[1-((E)-4-dimethylamino-but-2-enoyl)-pyrrolidin-3-ylamino]-pyrimidine-5-carboxylic acid amide]: the IC50 is greater than 5 µM.

Regarding `C=CC(=O)N1CCC(c2ccc(C(N)=O)c(Oc3ccc(Oc4cccc(C#N)c4)cc3)n2)C1` (stereo not shown) [Compound 185, 6-(1-Acryloylpyrrolidin-3-yl)-2-(4-(3-cyanophenoxy)phenoxy)nicotinamide], the IC50 is less than 0.1 µM. Turning to `C=CC(=O)NCc1cncc(-c2ccc(C(N)=O)c(Oc3ccc(Oc4ccccc4)cc3)n2)c1` [Compound 84, 5′-(acrylamidomethyl)-6-(4-phenoxyphenoxy)-[2,3′-bipyridine]-5-carboxamide], the 50% inhibitory concentration (IC50) was less than 0.1 µM. For `C=CC(=O)N[C@H]1CCN(c2ccc(C(N)=O)c(Nc3ccc(N4CCCC4)nc3)n2)C1` [Compound 41, 6-((S)-3-Acryloylamino-pyrrolidin-1-yl)-2-(6-pyrrolidin-1-yl-pyridin-3-ylamino)-nicotinamide], the IC50 was less than 0.1 µM. Regarding `C=CC(=O)N[C@H]1CCN(c2cc(Oc3ccc(Oc4cccc(C#N)c4)cc3)c(C(N)=O)cn2)C1` [Compound 113, (S)-6-(3-acrylamidopyrrolidin-1-yl)-4-(4-(3-cyanophenoxy)phenoxy)nicotinamide], the IC50 was in the range of 0.1 to 1 µM.

Regarding `C=CC(=O)N[C@H]1CCN(c2ccc(C(N)=O)c(Nc3cncc(C)c3)n2)C1` [Compound 55, 6-((S)-3-Acryloylamino-pyrrolidin-1-yl)-2-(5-methyl-pyridin-3-ylamino)-nicotinamide], the IC50 is less than 0.1 µM. Regarding `C=CC(=O)NCc1ccc(-c2ccc(C(N)=O)c(Oc3ccc(Oc4ccccc4)cc3)n2)cc1` [Compound 89, 6-(4-(acrylamidomethyl)phenyl)-2-(4-phenoxyphenoxy)nicotinamide], the IC50 fell in the range of 0.1 to 1 µM. As for `C=CC(=O)N1C[C@@H]2C[C@H]1CN2c1ncc(C(N)=O)c(Oc2ccc(Oc3ccccc3)cc2)n1` [Compound 147, 2-((1S,4S)-5-acryloyl-2,5-diazabicyclo[2.2.1]heptan-2-yl)-4-(4-phenoxyphenoxy)pyrimidine-5-carboxamide], the figure is less than 0.1 µM.

For the compound `C=CC(=O)N1CCn2ncc(-c3cnc(C(N)=O)cn3)c2C1` [Compound 137], the IC50 is greater than 5 µM. For the compound `C=CC(=O)N1CCC=C(c2cnc(Oc3ccc(Oc4ccccc4)cc3)c(C(N)=O)c2)C1` [Compound 123, 1′-Acryloyl-6-(4-phenoxy-phenoxy)-1′,2′,5′,6′-tetrahydro-[3,3′]bipyridinyl-5-carboxylic acid amide], the half-inhibitory concentration (IC50) was less than 0.1 µM. On to `C=CC(=O)N1CCN(c2ccc(C(N)=O)c(Nc3ccc(C)nc3)n2)CC1` [Compound 34], for which the IC50 was less than 0.1 µM. As for `C=CC(=O)N(C)[C@H]1CCN(c2ccc(C(N)=O)c(Oc3ccc(Oc4ccccc4)cc3)n2)C1` [Compound 107, 6-[(S)-3-(Acryloyl-methyl-amino)-pyrrolidin-1-yl]-2-(4-phenoxy-phenoxy)-nicotinamide], the figure is less than 0.1 µM; as for `C/C=C/C(=O)NC1CCCN(c2cnc(Oc3ccc(Oc4cccc(F)c4)cc3)c(C(N)=O)c2)C1` (stereo not shown) [Compound 222, 3-((E)-But-2-enoylamino)-6′-[4-(3-fluoro-phenoxy)-phenoxy]-3,4,5,6-tetrahydro-2H-[1,3′]bipyridinyl-5′-carboxylic acid amide], greater than 5 µM; as for `C=CC(=O)NC1CCCN(c2cnc(Oc3ccc(Oc4ccccc4)cc3)c(C(N)=O)c2)C1` (stereo not shown) [Compound 198], 0.1 to 1 µM.

With `N#C/C(=C\C1CC1)C(=O)N1C[C@@H]2C[C@H]1CN2c1ccc(C(N)=O)c(Oc2ccc(Oc3ccccc3)cc2)n1` [Compound 190, 6-((1S,4S)-5-((E)-2-cyano-3-cyclopropylacryloyl)-2,5-diazabicyclo[2.2.1]heptan-2-yl)-2-(4-phenoxyphenoxy)nicotinamide], the IC50 fell in the range of 1 to 5 µM. On to `C=CC(=O)N1C[C@@H]2C[C@H]1CN2c1ccc(C(N)=O)c(Oc2ccc(Oc3ccc(F)cc3F)cc2)n1` [Compound 66, 6-((1S,4S)-5-Acryloyl-2,5-diaza-bicyclo[2.2.1]hept-2-yl)-2-[4-(2,4-difluoro-phenoxy)-phenoxy]-nicotinamide], for which the IC50 was less than 0.1 µM.

Usually IC50 stands for the midpoint of a concentration-inhibition curve.
